{"source": "patent US6566047B1", "about": "“Method for identifying neurite-growth promoting agents” (The Regents of the University of Colorado, priority 1998, dated 2003)", "key": {"[1]": {"test_system": "12-LOX", "details": "Cho et al., 1991; cited from earlier work"}, "[2]": {"test_system": "12-Lox", "assay": "Eicosanoid (HETE) generation in GCPs", "type": "biochemical, rat", "description": "Eicosanoid Assays. Eicosanoid production in GCPs was measured by metabolic labelling from ^14C-AA or ^14C-AA-PC or by mass spectrometric detection. […] To measure Lox activity directly, without PLA2 involvement, ^3H-AA was the substrate of choice. Reactions were stopped by the addition of chloroform/methanol as for the phospholipase assays. Reaction products were extracted as described by Birkle et al., Neuromethods, vol. 7, pp.227-244 (Humana Press, N.J. 1988), spotted on pre-activated si gel 60 TLC plates, and the plates developed in the upper phase of ethyl acetate/isooctane/acetic acid/water (100:60:20:100). AA and HETEs were identified by co-migration with standards. Appropriate bands were counted by liquid scintillation spectrometry.\nFor mass-spectrometric (MS) identification of HETEs, two different strategies were pursued:\n(1) the appropriate bands from non-labelled samples (PC substrate) were scraped from the TLC plate into ether/methanol (9:1) and stored under N2 at −20° C. Authentic 12(S)-HETE, run alongside in the same manner, was used as a standard. Just prior to analysis, samples were passed over an SPE filter to eliminate silica particles, dried under argon, resuspended in 500 μl ethanol, and injected (at 3 μl/min) into a Finnigan LCQ quadrupole ion trap mass spectrometer (Finnigan MAT, San Jose, Calif.) equipped with an electrospray ionization source. All spectra were acquired at a capillary temperature of 80° C., and ion guide voltages were tuned to maximize the abundance of the deprotonated ion species [M-H]^− in negative mode. In order to generate a spectrum, typically 100 single scans were averaged.\n(2) For the other strategy (liquid chromatography/tandem MS, LC/MS^2), the reaction substrate consisted of 3.5 μM AA, with the addition of 3.5 μM deuterated AA (AA-D8) plus 1 μCi ^3H-AA to track reaction products by mass and radioactivity, respectively. Reactions were stopped with ice-cold ethanol, the mixtures kept overnight at −20° C. under N2, and the proteins spun out The supernatants were diluted with H2O and loaded onto 1-ml C18 Sep-Pak columns (Varian). After washing with H2O, eicosanoid was eluted with 2 ml methanol. These samples were resolved by reverse-phase HPLC, and the eluted fractions analyzed by tandem MS on-line (MacMillan and Murphy, 1995). Collision-induced decomposition of HETE isomers produced characteristic fragments that were identified at the second MS stage."}, "[3]": {"test_system": "MAT-Lu cells", "assay": "Pseudopod morphometry (pseudopod length assay), MAT-Lu cells", "type": "cell-based, rat", "description": "Pseudopod Morphometry. To study the effects of various agents on pseudopods on a short-term basis, we measured pseudopod lengths. Cells plated in 35-mm diameter dishes at low density (1×10^4 per dish) were incubated overnight, tie medium was changed, and the experiments were run four hours later. First, cultures were shifted to serum-free medium, which was replaced one hour later by serum-free medium with or without the various agents (thrombin, AA or HETEs). Care was taken to avoid heat and light inactivation of the eicosanoids. Culture dishes were placed on a Zeiss inverted microscope equipped with a heated stage and viewed with a 16×phase contrast objective lens. Randomly selected fields of the cultures, containing generally about 20 cells each, were recorded, digitized and stored in the computer at the onset of the experiment and at different times thereafter.\nIn some cases, individual cells were monitored over different periods of time immediately after introduction of the reagent, either by mixing it into the medium or by applying it locally to one end of the cell. Local application was done with a “puffer” system that expels microliter amounts of the desired solution from a micromanipulator-controlled micropipette tip. Cell morphology was recorded, and the captured images were analyzed with a Power Macintosh computer using NIH Image. Cell process length was measured from the center of the nucleus to the end of the process. Characterization of the frequencies of pseudopod lengths, at a fixed time for each of a sequence of concentrations of reagent, utilized a gamma regression model with an inverse quadratic linear predictor (McCullagh and Nelder, Generalized Linear Models 2d ed., pp. 291-292 (Chapman & Hall, 1989), separately fit to each concentration data set. Although no formal goodness-of-fit tests were carried out, in virtually every case there was good visual representation of the pattern of response (see FIG. 14). Most data, however, are shown as whisker-box plots, where the center point represents the 50%, the ends of the box the […] and 75%, and the “whiskers” the 5% and 95% quantiles (e.g., FIG. 11). Statistical comparisons of pseudopod lengths for different treatments were done by standard non-parametric techniques (Wilcoxon Rank Sum or Kruskal-Wallis Tests), as judged appropriate. Polynomial curve fittings were done by standard least-squares techniques. Statistical analyses and graphing were done with the use of SAS procedures: Reg, Phreg, Nparlway and Plot (SAS institute Inc., Cary, N.C.)."}, "[4]": {"test_system": "protein kinase C (PKC)", "assay": "MARCKS phosphorylation by PKC in isolated GCPs", "type": "biochemical, rat", "details": "isolated growth cones", "description": "FIG. 7A. Thrombin stimulates MARCKS phosphorylation in a 12-LOX-dependent manner. FIG. 7B. 12(S)-HETE stimulates MARCKS phosphorylation by PKC in isolated GCPs. […] Polypeptides were resolved by SDS-PAGE. MARCKS phosphorylation was quantified by phosphorimaging."}, "[5]": {"test_system": "growth cones in cultures of rat cerebral cortex", "assay": "Growth cone collapse assay in cortical neuron culture", "type": "cell-based", "description": "Neuron Culture. Cerebral cortices were dissected from embryonic day 18 Sprague-Dawley rats, cut into explants of less than 1 mm^3 and cultured on either poly-D-lysine-coated coverglass (Assistent) or poly-D-lvsine-coated tissue culture plastic. After 24 hours in B27 neurobasal medium (NB) supplemented with 10% fetal bovine serum, cultures were switched to serum-free B27/NB. The cultures were incubated at 37° C. in 5% CO2 in air. Sprouting neurons were observed readily on day 1. On day 2 or 3, long neurites were present, and the cultures were used for collapse experiments.\nActin Staining. After experimentation, cultures were fixed by slow infusion of fixative (4% paraformaldehyde in 0.1 M phosphate buffer, pH 7.4) into the culture dishes over 10 min (Pfenninger and Maylié-Pfenninger, J. Cell Biol. 89:53-546 (1981)). Thereafter, the fixative was removed by rinsing three times with phosphate-buffered saline (PBS) containing 1 mM glycine. Cultures were then blocked with PBS/1% bovine serum albumin (BSA) and permeabilized by incubation in 0.02% Triton X-100 for 5 min. After three washes in PBS/BSA, cultures were incubated with Texas-Red-conjugated phalloidin for 30 min. Unbound phalloidin was washed away by two PBS rinses, after which the coverglasses were mounted in Slow-Fade Light on microscope slides. Images were recorded on 35 mm film using a Zeiss Axiophot fluorescence microscope equipped with epiillumination.\nGrowth Cone Collapse Assay. Prior to repellent factor treatment, some of the day 2-3 explant cultures were pre-incubated (at 37° C.) with inhibitor or vehicle control (dimethylsulfoxide or ethanol) for 30-60 min. Cultures were then challenged with a repellent factor or vehicle control for 1-30 min. In some experiments, live cultures were photographed with a Zeiss IM 35 inverted photo microscope equipped with a stage heater, while in others cultures were fixed (as above) after 7 minutes of repellent factor treatment. Growth cone collapse was assessed quantitatively in aldehyde-fixed cultures by grading the degree of collapse in a large number of randomly selected growth cones."}, "[6]": {"test_system": "MAT-Lu cells", "assay": "Boyden chamber motility assay, MAT-Lu cells", "type": "cell-based, rat", "details": "for Mat-Lu cells crossing filter in % of control +/− SEM: 4 hr, thrombin 200 nM, CDC 126 nM", "description": "Boyden Chamber Motility Assays. Disposable transwells (Coming Costar, Cambridge, Mass.) of 6.5 mm diameter and 8 μm pore size were coated with 5 μg/ml laminin on both sides. The membranes were washed twice with Hank's balanced salt solution (HBSS) and then pre-incubated with growth medium containing 10% fetal bovine serum. Trypsinized cells (5×10^4) were plated into the upper well. After 1 hour the upper chamber was washed twice with HBSS, filled with serum-free medium and moved to a new lower chamber, also filled with serum-free medium, with or without thrombin and/or 0.75 nM insulin-like growth factor-1 (IGF-1). After incubation for 4 hrs, cells on the membrane were fixed and stained with a Diff-Quick kit (Baxter Scientific Products). Cells on the upper side were scraped off, the membranes were removed, mounted onto microscope slides and analyzed. Each filter was scanned twice at right angles under the light microscope with a 16×phase contrast objective lens. A continuous series of 20 frames for each filter was digitized using a high-resolution CCD camera (Kodak) and stored in a Power Macintosh computer. The two most peripheral pairs of frames from each scan were deleted so that 12 frames were analyzed for each filter. Cells that had crossed the membrane were counted and tabulated. The sum of the cells counted in the twelve frames was an individual data point."}, "[7]": {"target": "protein kinase C", "details": "Kobayashi et al. 1989; cited from earlier work"}}, "note": "Entries after “also recorded” stand apart in the source; their conditions may differ.", "data": [{"compound": "N#CC(=Cc1ccc(O)c(O)c1)C(=O)OCC=Cc1ccccc1", "note": "[CDC, cinnamyl-3,4-dihydroxy-α-cyanocinnamate]", "values": [{"measurement": "IC50", "setting": "[1]", "result": 63, "unit": "nM"}, {"measurement": "effect of inhibitor on thrombin-stimulated HETE production from AA", "setting": "[2]; 3H-AA substrate", "result": "strongly inhibited"}, {"measurement": "effect on thrombin-stimulated HETE levels", "setting": "[2]; 14C-AA-PC substrate, CDC 0.156 μM", "result": "reduces thrombin-stimulated HETE levels to below control"}, {"measurement": "effect of inhibitor pretreatment on AA-induced pseudopod shortening", "setting": "[3]; 15 min pretreatment, indomethacin 10 ηm, NDGA 25 μM, CDC 63 and 126 nM", "result": "blocked the AA effect completely; also recorded: reversed the AA effect; also recorded: reversed to control levels"}, {"measurement": "effect of agent alone on pseudopod length", "setting": "[3]; typically 15 min exposure", "result": "seemed to cause pseudopod elongation"}, {"measurement": "effect of inhibitor on thrombin-stimulated MARCKS and GAP43 phosphorylation", "setting": "[4]", "result": "blocks phosphorylation"}, {"measurement": "effect of CDC pretreatment on 12(S)-HETE-induced collapse", "setting": "[5]; 12(S)-HETE 10^−7M", "result": "is not affected"}, {"measurement": "effect of inhibitor pretreatment on thrombin- or TRAP-induced growth cone collapse", "setting": "[5]; CDC 10 μM, indomethacin 25 μM, pretreatment 30-45 min", "result": "inhibits the thrombin effect on growth cones; also recorded: partially inhibits collapse; also recorded: almost complete inhibition of this effect"}, {"measurement": "effect of LOX inhibitor on thrombin inhibition of migration", "setting": "[6]; CDC with thrombin, Table 1", "result": "reverses the effect of thrombin"}, {"measurement": "Mat-Lu cells crossing filter in % of control +/− SEM", "setting": "[6]; Control column (no IGF-1)", "result": "97.5 +/− 11.0 % of control"}, {"measurement": "Mat-Lu cells crossing filter in % of control +/− SEM", "setting": "[6]; IGF-1 (0.75 nM)", "result": "118 +/− 10.4 % of control"}]}, {"compound": "calphostin C", "values": [{"measurement": "effect of PKC inhibitor pretreatment on 12(S)-HETE-triggered pseudopod withdrawal", "setting": "[3]; 12(S)-HETE 10^−10M, calphostin 50 and 100 nM, 15 min pretreatment", "result": "blocks pseudopod retraction; also recorded: completely inhibited pseudopod withdrawal"}, {"measurement": "effect of inhibitor on thrombin-stimulated MARCKS and GAP43 phosphorylation", "setting": "[4]", "result": "blocks phosphorylation"}, {"measurement": "IC50", "setting": "[7]", "result": 50, "unit": "nM"}]}]}
